Measured values published in ChEMBL document CHEMBL6182924, “Discovery of a Novel and Potent MET Transcription Inhibitor Targeting Promoter G-Quadruplex for the Treatment of NSCLC” (J Med Chem, 2025).
Activity calls are given as the source filed them. The rule behind the calls is not given here.

Tests used:
[1] = tested on: NCI-H1975; assay: Antiproliferative activity against human NCI-H1975 cells assessed as inhibition of cell growth incubated for 3 days by CCK-8 assay; type: functional, cell-based; conditions: time 3.0 day
[2] = tested on: NCI-H1975; assay: Antiproliferative activity against human NCI-H1975 cells incubated for 3 days by CCK-8 assay; type: functional, cell-based; conditions: NCI-H1975, 72 h
[3] = tested on: NCI-H1975; assay: Induction of apoptosis in human NCI-H1975 cells assessed as viable cells at 0.5 uM incubated for 24 hrs by Annexin V-FITC/PI staining based flow cytometry analysis (reference value: 90.1 %); type: functional; conditions: read-out: Activity
[4] = Acute toxicity in Sprague-Dawley rat assessed as spleen damage at 500 to 2000 mg/kg, po measured every 2 days by H and E staining based analysis; type: organism-based; conditions: in vivo, 48 h, dose 500-2000 mg/kg, time 2 day
[5] = Toxicity in BALB/c mouse xenografted with human A549 cells assessed as liver damage at 40 mg/kg, po administered once a day and measured after 20 days by H and E staining based analysis; type: organism-based; conditions: in vivo, 480 h, time 20 day
[6] = tested on: A549; assay: Induction of apoptosis in human A549 cells assessed as viable cells at 0.5 uM incubated for 24 hrs by Annexin V-FITC/PI staining based flow cytometry analysis (reference value: 91.3%); type: functional; conditions: read-out: Activity
[7] = tested on: A549; assay: Antitumor activity against human A549 cells xenografted in BALB/c mouse assessed as downregulation of c-MET expression in tumor at 20 mg/kg, po administered once a day and measured for 20 days by Western blot analysis; type: functional, organism-based; conditions: time 20.0 day
[8] = tested on: A549; assay: Antiproliferative activity against human A549 cells assessed as inhibition of cell growth incubated for 3 days by CCK-8 assay; type: functional, cell-based; conditions: time 3.0 day
[9] = tested on: BaF3; assay: Antiproliferative activity against mouse BaF3 cells harboring TPR-MET […] mutant incubated for 24 hrs by CCK-8 assay; type: functional, cell-based; conditions: BaF3, 24 h
[10] = tested on: NCI-H1975; assay: Induction of apoptosis in human NCI-H1975 cells assessed as early apoptotic cells at 0.5 uM incubated for 24 hrs by Annexin V-FITC/PI staining based flow cytometry analysis (reference value: 0.35 %); type: functional
[11] = tested on: A549; assay: Induction of apoptosis in human A549 cells assessed as necrotic cells at 1 uM incubated for 24 hrs by Annexin V-FITC/PI staining based flow cytometry analysis (reference value: 4.37 %); type: functional
[12] = Toxicity in BALB/c mouse xenografted with human A549 cells assessed as kidney damage at 20 mg/kg, po administered once a day and measured after 20 days by H and E staining based analysis; type: organism-based; conditions: in vivo, 480 h, time 20 day
[13] = Toxicity in BALB/c mouse xenografted with human A549 cells assessed as lung damage at 20 mg/kg, po administered once a day and measured after 20 days by H and E staining based analysis; type: organism-based; conditions: in vivo, 480 h, time 20 day

For `COc1cccc(-c2ccc(-c3nc4c5cccnc5c5ncccc5c4[nH]3)o2)c1`, the Activity [1] was “Active”, the IC50 [2] was 1680 nM and the viability at 0.5 µM [3] was 85.1%. For the same compound, the Activity [4] was “Non-toxic”, the Activity [5] was “Non-toxic” and the viability at 0.5 µM [6] was 83.2%. The Activity [7] was “Active”, the Activity [8] was “Active” and the IC50 [9] was 620 nM. For the same compound, the Activity [10] was 2.01%, the Activity [11] was 8.81% and the Activity [12] was “Non-toxic”. For the same compound, the Activity [13] was “Non-toxic”.
